Target: XLF (Homo sapiens, UniProt Q9H9Q4)
Experiment: Thermoshift assay of XLF stability in cells
Assay type: cell-based

XLF, sequence (Q9H9Q4 whole entry): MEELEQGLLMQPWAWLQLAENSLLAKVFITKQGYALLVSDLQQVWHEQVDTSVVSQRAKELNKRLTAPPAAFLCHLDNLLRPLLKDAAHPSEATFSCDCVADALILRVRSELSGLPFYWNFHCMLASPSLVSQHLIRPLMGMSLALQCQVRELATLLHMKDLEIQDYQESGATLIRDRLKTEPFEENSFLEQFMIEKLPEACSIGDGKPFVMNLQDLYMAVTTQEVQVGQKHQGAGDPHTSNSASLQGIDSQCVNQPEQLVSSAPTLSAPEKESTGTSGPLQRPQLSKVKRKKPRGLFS

Row | Structure (SMILES) | Interaction with XLF (XLF stability)
1 | Oc1ccc(/C=C/c2cc(O)cc(O)c2)cc1 [resveratrol] | interacted with XLF
2 | CC[C@]1(O)C[C@H]2CN(CCc3c([nH]c4ccccc34)[C@@](C(=O)OC)(c3cc4c(cc3OC)N(C=O)[C@H]3[C@@](O)(C(=O)OC)[C@H](OC(C)=O)[C@]5(CC)C=CCN6CC[C@]43[C@@H]65)C2)C1 [vincristine] | interacted with XLF
3 | COc1cc(O)cc(CCc2ccc(O)c(OC)c2)c1 [Gigantol, gigantol] | interacted with XLF

Source: PMC6847993 (Drug Design, Development and Therapy, 2019)
